Values of other authors, collected in patent publication US20080200512A1, “Hepatitis C virus polymerase inhibitors” (priority 2007, published 2008).

System: HCV
Conditions: monotherapy

## NC(=O)c1ncn([C@@H]2O[C@H](CO)[C@@H](O)[C@H]2O)n1 [ribavirin, 1-((2R,3R,4S,5R)-3,4-dihydroxy-5-hydroxymethyl-tetrahydro-furan-2-yl)-1H-[1,2,4]triazole-3-carboxylic acid amide]
  patients in whom serum amino transferase levels are reduced to normal: 40%
